According to patent US9789114B2, “Compounds as HIF-1α inhibitors and manufacturing process thereof” (DONGGUK UNIVERSITY INDUSTRY-ACADEMIC COOPERATION FOUNDATION, priority 2011, dated 2017):
Like-named read-outs stand apart in the source and are kept apart here.

Assays:
[1] = test system: HIF-1α-mediated HRE transcriptional activity; assay: Assay for inhibition of HIF-1α-mediated transcriptional activity (HRE reporter assay); type: cell-based, human; details: Homo sapiens, HCT-116, HCT116 cells, 12 hours under hypoxia (1% O2), read-out: Inhibitory activity against HIF-1α (10 μM)
In short: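 HCT116 human colon cancer cells co-transfected with pGL3 luciferase reporter carrying six HRE copies from human VEGF plus Renilla control, then treated with 0–20 μM compound for 12 h under hypoxia (1% O2). Inhibition taken from dual-luciferase reporter activity in lysates.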

HIF-1α = target: T1, HIF-1α (Homo sapiens, UniProt Q16665); assay: Inhibition of hypoxia-induced HIF-1α accumulation, western blot in HCT116 cells; type: cell-based; details: HCT116, hypoxia 1% O2, 0-30 μM, 12 hours, FIG. 1
T1 construct: endogenous in cells; host or cells: HCT116 human colon cancer cells (ATCC #CCL-247)
T1 sequence (Q16665 whole entry): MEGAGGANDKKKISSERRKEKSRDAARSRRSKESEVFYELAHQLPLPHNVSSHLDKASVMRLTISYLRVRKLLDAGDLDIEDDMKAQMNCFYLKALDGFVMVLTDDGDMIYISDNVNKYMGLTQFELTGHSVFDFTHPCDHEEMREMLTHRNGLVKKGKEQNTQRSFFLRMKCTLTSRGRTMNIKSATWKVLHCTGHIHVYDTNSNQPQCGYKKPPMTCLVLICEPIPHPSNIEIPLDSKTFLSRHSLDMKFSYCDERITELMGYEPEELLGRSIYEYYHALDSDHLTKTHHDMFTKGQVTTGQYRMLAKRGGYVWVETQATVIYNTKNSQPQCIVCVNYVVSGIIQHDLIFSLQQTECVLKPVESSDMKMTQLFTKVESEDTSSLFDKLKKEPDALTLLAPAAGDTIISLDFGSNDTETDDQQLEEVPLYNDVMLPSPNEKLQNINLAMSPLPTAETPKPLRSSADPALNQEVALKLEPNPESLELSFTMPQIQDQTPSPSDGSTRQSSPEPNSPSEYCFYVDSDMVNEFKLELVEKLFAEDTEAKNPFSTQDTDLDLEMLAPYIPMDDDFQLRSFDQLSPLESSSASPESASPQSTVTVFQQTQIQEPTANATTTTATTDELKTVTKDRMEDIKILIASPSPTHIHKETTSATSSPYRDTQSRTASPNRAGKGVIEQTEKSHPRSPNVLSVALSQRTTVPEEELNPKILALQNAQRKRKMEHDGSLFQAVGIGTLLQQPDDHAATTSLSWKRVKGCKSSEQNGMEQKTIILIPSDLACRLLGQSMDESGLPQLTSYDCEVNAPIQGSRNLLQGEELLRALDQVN
Procedure: <Experiment 2> In Vitro Studies for Inhibition of Hypoxia-Induced HIF-1α Accumulation
Inhibition of HIF-1α accumulation by the compounds according to the present invention was determined in HCT116 human colon cancer cells. In particular, western blot analysis was used to identify the compounds, I-3, I-6, I-8, I-16, I-19, I-22˜I-24, and I-27˜I-36, which inhibited HIF-1α accumulation under hypoxia.
(§1) First, HCT116 human colon cancer cells (ATCC #CCL-247) were plated at the concentration of 2×10^5 cells/ml. After 24 hours, the cells were incubated under hypoxia (1% O2, 94% N2, and 5% CO2, expressed as 1% O2 in FIG. 1) for 4 hours in order to induce HIF-la accumulation. Cells were treated with the compounds at various concentrations (0, 3, 10, 20, and 30 μM) for 12 hours under hypoxia. The cells were then harvested, and lysed in RIPA buffer to obtain nuclear extracts. Cells grown at 20% O2 (normoxia) were used as control groups to compare HIF-1α-mediated gene expression under each condition. 30 μg of the nuclear extracts per sample was separated by SDS-PAGE (sodium dodecyl sulfate-polyacrylamide gel electrophoresis), and was then transferred to PVDF (polyvinylidene fluoride membrane) membranes. After membranes were probed with HIF-1α antibodies (R&D System), HIF-1α proteins were detected with HRP-conjugated secondary antibodies (Amersham-Pharmacia). GAPDH (Glyceraldehyde 3-phosphate dehydrogenase) was used as an internal control for loading in western blot analysis.

GAPDH = GAPDH expression level (internal control) in western blot, HCT116 cells; type: cell-based, human; details: HCT116, hypoxia 1% O2, 0-30 μM, 12 hours, FIG. 1
Procedure: as §1

[2] = test system: Chick embryo chorioallantoic membrane; assay: CAM (chick embryo chorioallantoic membrane) assay; type: in vivo; details: 10-20 μg on coverslip, 2 days, FIG. 2
Procedure: CAM (Chick embryo chorioallantoic membrane) assay was conducted as an in vivo model to determine whether the compounds according to the present invention, I-3, I-6, I-19, and I-22, had anti-angiogenic effects or not. DMSO-treated groups were used as negative controls.
According to the present invention, CAM assay was performed as follows.
Fertilized eggs were incubated periodically rolling at 37° C. with 50% humidity for 2-3 days. When eggs were erected, approximately 3 ml of albumin was extracted from the sharp edge of the eggs using a syringe. The hole of the eggs was sealed with a tape to prevent from dryness and contamination, and the hole of the eggs was put down and incubated for 2 to 3 days. After punching a hole with 1.5 cm diameter in the round part of eggs, opaque membrane was removed carefully. The compounds (10-20 μg) according to the present invention were placed and spread on thermanox coverslip equally to dry, and then the hole in the round part of eggs put on the upper part of the fertilized eggs that vessels grew. The eggs were examined under the dissecting microscope and the results were given in FIG. 2, after covering the hole with a coverglass to protect it from contamination for 2 days.

[3] = test system: HCT116 colon cancer cells; assay: In vivo anti-cancer activity by oral administration, HCT116 tumor in nude mice; parameters: species or system BALB/c nu/nu mice; details: for inhibition in vivo at 20 mg/kg: Mus musculus
Procedure: <Example 4> In Vivo Anti-Cancer Activity of Compounds by Oral Administration
(§2) In vivo anti-cancer activity of the compounds according to the present invention, I-3, I-6, I-8, I-16, I-19, I-22, I-23, and I-24, was measured in mice to evaluate in vivo efficacy by oral administration. Specifically, the nude mice were divided into test groups and control groups, each consisting of 4 mice. In vivo efficacy was evaluated by measuring body weight, tumor volume, and tumor weight.
(§3) Female nude mice 6 weeks old (BALB/c nu/nu, Charles River) were bred in germ-free breeding rooms maintained at constant temperature and humidity. After the nude mice were anesthetized, HCT116 colon cancer cells were implanted at a count of […] cells/mouse into the rectum in BALB/c nu/nu mice and then the incisions were closed with surgical clips. The size of tumor was measured by a caliper. When the size of transplanted tumor reached to 50˜60 mm^3, the above compounds according to the present invention were administered. In more detail, after the above compounds in test groups were dissolved at concentration of 20 mg/kg in a solvent containing 80% of physiological saline, 10% of DMAC (dimethylacetamide), and 10% Tween 80 (hereinafter referred to as ‘Solvent A’), […] of dissolved compounds were orally administered once a day. Mice in control groups were treated with […] of Solvent A alone once daily.
(§4) Tumor volume and body weight were measured to identify in vivo anti-cancer activity of the compounds according to the present invention by repetitive oral administration. Tumor volume and tumor growth inhibition (TGI) in Table 2 were calculated according to the below Mathematic FIG. 1 and FIG. 2, respectively. Tumor growth inhibition was converted to a percentage in Table 2.

[4] = Body weight change and side effects during 14 days of oral treatment in nude mice; type: in vivo, BALB/c nu/nu mice
Procedure: as §2, §3, §4
Moreover, severe side effects and statistically significant changes of body weight in all mice treated compounds were not shown for 14 days, comparing to control groups treated with vehicle. (Table 3)

[5] = day 3, 20 mg/kg oral once a day
[6] = day 5, 20 mg/kg oral once a day
[7] = day 7, 20 mg/kg oral once a day
[8] = day 10, 20 mg/kg oral once a day
[9] = day 12, 20 mg/kg oral once a day
[10] = day 14, 20 mg/kg oral once a day

HIF-1α degradation (HIF-1α): promoted HIF-1α degradation
SMILES: C[N+](C)(C)CCNC(=O)CCOc1ccc(C23CC4CC(CC(C4)C2)C3)cc1.[I-] [Compound I-19, 2-(3-(4-(Adamantan-1-yl)phenoxy)propanamido)-N,N,N-trimethylethanaminium iodide]
inhibition at 10 µM [1]: 26 to 50%
inhibitory effects on HIF-1α accumulation (HIF-1α): significant inhibitory effects on HIF-1α accumulation
GAPDH expression levels (GAPDH): did not affect GAPDH expression levels
formation of vessels (anti-angiogenic effect) [2]: inhibited formation of vessels
inhibitory effects on tumor growth (TGI results) ([3]; 20 mg/kg oral once a day, 14 days): significant inhibitory effects on tumor growth
inhibition in vivo at 20 mg/kg ([3]; HCT-116, 72 h, day 3, 20 mg/kg oral once a day, read-out: TGI (tumor growth inhibition), tumor volume): 34.1%
inhibition in vivo at 20 mg/kg ([3]; HCT-116, 120 h, day 5, 20 mg/kg oral once a day, read-out: TGI (tumor growth inhibition), tumor volume): 36.4%
inhibition in vivo at 20 mg/kg ([3]; HCT-116, 168 h, day 7, 20 mg/kg oral once a day, read-out: TGI (tumor growth inhibition), tumor volume): 36.8%
inhibition in vivo at 20 mg/kg ([3]; HCT-116, 240 h, day 10, 20 mg/kg oral once a day, read-out: TGI (tumor growth inhibition), tumor volume): 37.7%
inhibition in vivo at 20 mg/kg ([3]; HCT-116, 288 h, day 12, 20 mg/kg oral once a day, read-out: TGI (tumor growth inhibition), tumor volume): 37.8%
inhibition in vivo at 20 mg/kg ([3]; HCT-116, 336 h, day 14, 20 mg/kg oral once a day, read-out: TGI (tumor growth inhibition), tumor volume): 39.2%
inhibition in vivo at 20 mg/kg ([3]; HCT-116, 336 h, day 14, 20 mg/kg oral once a day, read-out: TGI (tumor growth inhibition), tumor weight): 41.3%
Tumor volume [3, 5]: 22.4 ± 5.6 mm^3
Tumor volume [3, 6]: 58.8 ± 11.3 mm^3
Tumor volume [3, 7]: 110.4 ± 11.2 mm^3
Tumor volume [3, 8]: 162.3 ± 10.1 mm^3
Tumor volume [3, 9]: 278.8 ± 35.0 mm^3
Tumor volume [3, 10]: 404.7 ± 17.6 mm^3
Tumor weight [3, 10]: 1392.4 ± 153.0 mg
Body weight change ([4]; day 0, 20 mg/kg oral once a day): 100.0 ± 0.0%
Body weight change [4, 5]: 104.0 ± 1.6%
Body weight change [4, 6]: 104.7 ± 3.1%
Body weight change [4, 7]: 104.6 ± 4.0%
Body weight change [4, 8]: 105.1 ± 4.3%
Body weight change [4, 9]: 103.4 ± 3.5%
Body weight change [4, 10]: 102.2 ± 3.8%
